Results reported in PubChem BioAssay (NCI).
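These data come from cells grown in 96-well plates and exposed to compound for 48 hours at five concentrations. TGI is the concentration that stops growth completely.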

Tests used:
Assay in all cases: growth of human tumour cells (NCI), 48 h
786-0 renal = system: 786-0 renal
A498 renal = system: A498 renal
A549 NSCLC = system: A549 NSCLC
ACHN renal = system: ACHN renal
CAKI-1 renal = system: CAKI-1 renal
CCRF-CEM leukemia = system: CCRF-CEM leukemia
DLD-1 colon = system: DLD-1 colon
DMS 114 small cell lung = system: DMS 114 small cell lung
DMS 273 small cell lung = system: DMS 273 small cell lung
EKVX NSCLC = system: EKVX NSCLC
HCT-116 colon = system: HCT-116 colon
HCT-15 colon = system: HCT-15 colon
HL-60(TB) leukemia = system: HL-60(TB) leukemia
HOP-62 NSCLC = system: HOP-62 NSCLC
HT29 colon = system: HT29 colon
K-562 leukemia = system: K-562 leukemia
KM12 colon = system: KM12 colon
LXFL 529 NSCLC = system: LXFL 529 NSCLC
M14 melanoma = system: M14 melanoma
M19-MEL melanoma = system: M19-MEL melanoma
MOLT-4 leukemia = system: MOLT-4 leukemia
NCI-H226 lung = system: NCI-H226 lung
NCI-H23 lung = system: NCI-H23 lung
NCI-H460 lung = system: NCI-H460 lung
NCI-H522 lung = system: NCI-H522 lung
OVCAR-3 ovarian = system: OVCAR-3 ovarian
OVCAR-4 ovarian = system: OVCAR-4 ovarian
OVCAR-5 ovarian = system: OVCAR-5 ovarian
OVCAR-8 ovarian = system: OVCAR-8 ovarian
RXF 393 renal = system: RXF 393 renal
SF-268 CNS = system: SF-268 CNS
SF-295 CNS = system: SF-295 CNS
SF-539 CNS = system: SF-539 CNS
SK-MEL-2 melanoma = system: SK-MEL-2 melanoma
SK-MEL-28 melanoma = system: SK-MEL-28 melanoma
SK-MEL-5 melanoma = system: SK-MEL-5 melanoma
SK-OV-3 ovarian = system: SK-OV-3 ovarian
SN12C renal = system: SN12C renal
SNB-19 CNS = system: SNB-19 CNS
SNB-75 CNS = system: SNB-75 CNS
SNB-78 CNS = system: SNB-78 CNS
SR leukemia = system: SR leukemia
SW-620 colon = system: SW-620 colon
TK-10 renal = system: TK-10 renal
U251 CNS = system: U251 CNS
UACC-257 melanoma = system: UACC-257 melanoma
UACC-62 melanoma = system: UACC-62 melanoma
UO-31 renal = system: UO-31 renal
XF 498 CNS = system: XF 498 CNS
COLO 205 colon = system: COLO 205 colon
HCC-2998 colon = system: HCC-2998 colon
HOP-92 NSCLC = system: HOP-92 NSCLC
IGROV1 ovarian = system: IGROV1 ovarian
KM20L2 colon = system: KM20L2 colon
LOX IMVI melanoma = system: LOX IMVI melanoma
MALME-3M melanoma = system: MALME-3M melanoma
RPMI-8226 leukemia = system: RPMI-8226 leukemia

CCOC(=O)C1CCCCN1C(=O)OCc1ccccc1 (stereo unspecified)
TGI (786-0 renal): > 100 µM | TGI (A498 renal): > 100 µM | TGI (A549 NSCLC): > 100 µM | TGI (ACHN renal): > 100 µM | TGI (CAKI-1 renal): > 100 µM | TGI (CCRF-CEM leukemia): > 100 µM | TGI (DLD-1 colon): > 100 µM | TGI (DMS 114 small cell lung): > 100 µM | TGI (DMS 273 small cell lung): > 100 µM | TGI (EKVX NSCLC): > 100 µM | TGI (HCT-116 colon): > 100 µM | TGI (HCT-15 colon): > 100 µM | TGI (HL-60(TB) leukemia): > 100 µM | TGI (HOP-62 NSCLC): > 100 µM | TGI (HT29 colon): > 100 µM | TGI (K-562 leukemia): > 100 µM | TGI (KM12 colon): > 100 µM | TGI (LXFL 529 NSCLC): > 100 µM | TGI (M14 melanoma): > 100 µM | TGI (M19-MEL melanoma): > 100 µM | TGI (MOLT-4 leukemia): > 100 µM | TGI (NCI-H226 lung): > 100 µM | TGI (NCI-H23 lung): > 100 µM | TGI (NCI-H460 lung): > 100 µM | TGI (NCI-H522 lung): > 100 µM | TGI (OVCAR-3 ovarian): > 100 µM | TGI (OVCAR-4 ovarian): > 100 µM | TGI (OVCAR-5 ovarian): > 100 µM | TGI (OVCAR-8 ovarian): > 100 µM | TGI (RXF 393 renal): > 100 µM | TGI (SF-268 CNS): > 100 µM | TGI (SF-295 CNS): > 100 µM | TGI (SF-539 CNS): > 100 µM | TGI (SK-MEL-2 melanoma): > 100 µM | TGI (SK-MEL-28 melanoma): > 100 µM | TGI (SK-MEL-5 melanoma): > 100 µM | TGI (SK-OV-3 ovarian): > 100 µM | TGI (SN12C renal): > 100 µM | TGI (SNB-19 CNS): > 100 µM | TGI (SNB-75 CNS): > 100 µM | TGI (SNB-78 CNS): > 100 µM | TGI (SR leukemia): > 100 µM | TGI (SW-620 colon): > 100 µM | TGI (TK-10 renal): > 100 µM | TGI (U251 CNS): > 100 µM | TGI (UACC-257 melanoma): > 100 µM | TGI (UACC-62 melanoma): > 100 µM | TGI (UO-31 renal): > 100 µM | TGI (XF 498 CNS): > 100 µM

CNCC(=O)Nc1ccc2c(c1)C(=O)c1ccc(NC(=O)CNC)cc1C2=O
TGI (786-0 renal): 15.7 µM | TGI (A498 renal): 28.5 µM | TGI (A549 NSCLC): 25.6 µM | TGI (CAKI-1 renal): 20 µM | TGI (CCRF-CEM leukemia): 11 µM | TGI (COLO 205 colon): 11 µM | TGI (DLD-1 colon): 29.9 µM | TGI (DMS 114 small cell lung): 7.12 µM | TGI (DMS 273 small cell lung): 10.7 µM | TGI (HCC-2998 colon): 14.6 µM | TGI (HCT-116 colon): 11.9 µM | TGI (HCT-15 colon): 23.2 µM | TGI (HOP-62 NSCLC): 9.98 µM | TGI (HOP-92 NSCLC): 7 µM | TGI (HT29 colon): 16.2 µM | TGI (IGROV1 ovarian): 38 µM | TGI (K-562 leukemia): 7.19 µM | TGI (KM12 colon): 10.4 µM | TGI (KM20L2 colon): 21.1 µM | TGI (LOX IMVI melanoma): 4.17 µM | TGI (LXFL 529 NSCLC): 12.3 µM | TGI (M14 melanoma): 11.8 µM | TGI (MALME-3M melanoma): 12.9 µM | TGI (MOLT-4 leukemia): 10.1 µM | TGI (NCI-H226 lung): 20.3 µM | TGI (NCI-H23 lung): 31.6 µM | TGI (NCI-H460 lung): 12.3 µM | TGI (NCI-H522 lung): 4.81 µM | TGI (OVCAR-3 ovarian): 11.1 µM | TGI (OVCAR-4 ovarian): 5.68 µM | TGI (OVCAR-5 ovarian): 34.8 µM | TGI (OVCAR-8 ovarian): 10.2 µM | TGI (RXF 393 renal): 20.3 µM | TGI (SF-295 CNS): 18.6 µM | TGI (SF-539 CNS): 11.2 µM | TGI (SK-MEL-2 melanoma): 11.7 µM | TGI (SK-MEL-28 melanoma): 10.1 µM | TGI (SK-MEL-5 melanoma): 17.9 µM | TGI (SK-OV-3 ovarian): 3.81 µM | TGI (SN12C renal): 11.9 µM | TGI (SNB-75 CNS): 27.1 µM | TGI (SNB-78 CNS): 10.7 µM | TGI (SR leukemia): 7.54 µM | TGI (SW-620 colon): 12.3 µM | TGI (TK-10 renal): 44.9 µM | TGI (U251 CNS): 10.4 µM | TGI (UACC-257 melanoma): 16.1 µM | TGI (UACC-62 melanoma): 22.2 µM | TGI (UO-31 renal): 25.7 µM | TGI (XF 498 CNS): 8.25 µM

O=C1OC(O)c2cc3c(cc21)OCO3 (stereo unspecified)
TGI (786-0 renal): > 100 µM | TGI (A498 renal): > 100 µM | TGI (A549 NSCLC): > 100 µM | TGI (CAKI-1 renal): > 100 µM | TGI (CCRF-CEM leukemia): > 100 µM | TGI (COLO 205 colon): > 100 µM | TGI (DLD-1 colon): > 100 µM | TGI (DMS 114 small cell lung): > 100 µM | TGI (DMS 273 small cell lung): > 100 µM | TGI (EKVX NSCLC): > 100 µM | TGI (HCC-2998 colon): > 100 µM | TGI (HCT-116 colon): > 100 µM | TGI (HCT-15 colon): > 100 µM | TGI (HL-60(TB) leukemia): > 100 µM | TGI (HOP-62 NSCLC): > 100 µM | TGI (HOP-92 NSCLC): > 100 µM | TGI (HT29 colon): > 100 µM | TGI (IGROV1 ovarian): > 100 µM | TGI (K-562 leukemia): > 100 µM | TGI (KM12 colon): > 100 µM | TGI (LOX IMVI melanoma): > 100 µM | TGI (LXFL 529 NSCLC): > 100 µM | TGI (M14 melanoma): > 100 µM | TGI (M19-MEL melanoma): > 100 µM | TGI (MALME-3M melanoma): > 100 µM | TGI (MOLT-4 leukemia): > 100 µM | TGI (NCI-H23 lung): > 100 µM | TGI (NCI-H460 lung): > 100 µM | TGI (NCI-H522 lung): > 100 µM | TGI (OVCAR-3 ovarian): > 100 µM | TGI (OVCAR-4 ovarian): > 100 µM | TGI (OVCAR-8 ovarian): > 100 µM | TGI (RPMI-8226 leukemia): > 100 µM | TGI (RXF 393 renal): > 100 µM | TGI (SF-268 CNS): > 100 µM | TGI (SF-295 CNS): > 100 µM | TGI (SF-539 CNS): > 100 µM | TGI (SK-MEL-2 melanoma): > 100 µM | TGI (SK-MEL-28 melanoma): > 100 µM | TGI (SK-MEL-5 melanoma): > 100 µM | TGI (SK-OV-3 ovarian): > 100 µM | TGI (SN12C renal): > 100 µM | TGI (SNB-19 CNS): > 100 µM | TGI (SNB-75 CNS): > 100 µM | TGI (SNB-78 CNS): > 100 µM | TGI (SW-620 colon): > 100 µM | TGI (TK-10 renal): > 100 µM | TGI (U251 CNS): > 100 µM | TGI (UACC-257 melanoma): > 100 µM | TGI (UACC-62 melanoma): > 100 µM | TGI (UO-31 renal): > 100 µM | TGI (XF 498 CNS): > 100 µM
